# Test system: moderate-to-severe chronic spontaneous urticaria (CSU)
# Experiment: Phase 2 CSU study: urticaria activity score over 7 days (UAS7)
# Assay type: in vivo, human
# Parameters: key to UAS7 Median / UAS7 Change from baseline Median / UAS7 change from baseline, Q1 / UAS7 change from baseline, Q3 / UAS7 change from baseline, Max / UAS7 Change from baseline LS Mean (SE): UAS7 points; daily UAS score ranges 0–6 points/day, over 7 days
# Source text: The study comprises a 12 week, randomized, double-blind, placebo-controlled, multi-center, dose-ranging efficacy and safety phase, followed by a 40 week open label extension (OLE) phase (see FIG. 1). The study consists of three phases and an optional OLE phase. […] Clinically, CSU is characterized by the spontaneous and recurrent appearance of pruritic hives. The proposed primary endpoints were the UAS7 at Week 12 in EU and EU reference countries and the ISS7 in the US. Regardless of where a participant was from, all assessments were the same. The UAS7 score is a composite score containing both the HSS7 and the ISS7. This allowed a global assessment of the two key components of urticaria: hives and itch. […] The UAS is a validated PRO measure. […] The daily UAS scores range from 0 to 6 point/day. […] Patients were to complete the UAS using the e-diary. […] The following secondary endpoints were to be analyzed using the same approach as for the primary endpoint: • Change from baseline in UAS7 at Week 4 • Change from baseline in UAS7 at Week 12 (for US and US reference countries) • Change from baseline in ISS7 at Week 12 (except US and US reference countries) • Change from baseline in HSS7 at Week 12 The following responder secondary endpoints were to be analyzed using the Cochran-Mantel-Haenszel test adjusted by region: • Proportion of participants with UAS7<6 at Week 12 • Proportion of participants with UAS7=0 at Week 12 Participants who received selected prohibited medications and/or rescue medications were to be considered as non-responders for time points after the medication usage. For other participants, all available data including those collected during the off-treatment period were to be used to determine the responder/non-responder status. Missing data were to be considered as non-responders.
# [1] = Week 11, 400 mg TID, Prior Omalizumab Use
# [2] = Week 11, 400 mg TID, omalizumab-naive participants
# [3] = Week 12, 400 mg BID, ITT population
# [4] = Week 12, 400 mg BID, Omalizumab-Naïve
# [5] = Week 12, 400 mg BID, Prior Omalizumab Use
# [6] = Week 12, 400 mg BID, omalizumab-naive participants
# [7] = Week 12, 400 mg QPM, ITT population
# [8] = Week 12, 400 mg QPM, Omalizumab-Naïve
# [9] = Week 12, 400 mg QPM, Prior Omalizumab Use
# [10] = Week 12, 400 mg QPM, omalizumab-naive participants
# [11] = Week 12, 400 mg TID, ITT population
# [12] = Week 12, 400 mg TID, Omalizumab-Naïve
# [13] = Week 12, 400 mg TID, Prior Omalizumab Use
# [14] = Week 12, 400 mg TID, omalizumab-naive participants
structure (smiles),measurement,setting,value
"CC(C)(C=C(C#N)C(=O)N1CCC[C@@H](n2nc(-c3ccc(Oc4ccccc4)cc3F)c3c(N)ncnc32)C1)N1CCN(C2COC2)CC1 [rilzabrutinib, (R)-2-[3-[4-amino-3-(2-fluoro-4-phenoxy-phenyl)pyrazolo[3,4-d]pyrimidin-1-yl]piperidine-1-carbonyl]-4-methyl-4-[4-(oxetan-3-yl)piperazin-1-yl]pent-2-enenitrile]",UAS7 Change from baseline Mean (SD),[1],−25.94 (15.41)
same,UAS7 Change from baseline Median,[1],−26.33
same,UAS7 Mean (SD),[1],7.08 (11.77)
same,UAS7 Median,[1],1.75
same,UAS7 Percent change from baseline Mean (SD),[1],−76.09 (31.89) %
same,UAS7 Percent change from baseline Median,[1],−92.11%
same,"Non-responder, UAS7 reduction from baseline of 10 points or more",[2],12 (34.3) n (%)
same,"OR for rilzabrutinib vs. placebo, UAS7 reduction of 10 points or more",[2],1.839
same,"RRD (%) for rilzabrutinib vs. placebo, UAS7 reduction of 10 points or more",[2],13.6 %
same,"Responder, UAS7 reduction from baseline of 10 points or more",[2],23 (65.7) n (%)
same,"Non-responder, UAS7 reduction from baseline of 10 points or more",[3],23 (56.1) n (%)
same,"OR for rilzabrutinib vs. placebo, UAS7 reduction of 10 points or more",[3],1.041
same,"RRD (%) for rilzabrutinib vs. placebo, UAS7 reduction of 10 points or more",[3],1.0 %
same,"Responder, UAS7 reduction from baseline of 10 points or more",[3],18 (43.9) n (%)
same,UAS7 Change from baseline Mean (SD),[4],−14.49 (12.08)
same,UAS7 Change from baseline Median,[4],−12.80
same,UAS7 Mean (SD),[4],15.61 (13.91)
same,UAS7 Median,[4],14.00
same,UAS7 Percent change from baseline Mean (SD),[4],−50.20 (37.89) %
same,UAS7 Percent change from baseline Median,[4],−47.76%
same,UAS7 Change from baseline Mean (SD),[5],−26.00 (18.38)
same,UAS7 Change from baseline Median,[5],−31.00
same,UAS7 Mean (SD),[5],8.75 (17.50)
same,UAS7 Median,[5],0.00
same,UAS7 Percent change from baseline Mean (SD),[5],−75.00 (50.00) %
same,UAS7 Percent change from baseline Median,[5],−100.00%
same,"Non-responder, UAS7 reduction from baseline of 10 points or more",[6],20 (57.1) n (%)
same,"OR for rilzabrutinib vs. placebo, UAS7 reduction of 10 points or more",[6],1.069
same,"RRD (%) for rilzabrutinib vs. placebo, UAS7 reduction of 10 points or more",[6],1.7 %
same,"Responder, UAS7 reduction from baseline of 10 points or more",[6],15 (42.9) n (%)
same,"Non-responder, UAS7 reduction from baseline of 10 points or more",[7],24 (63.2) n (%)
same,"OR for rilzabrutinib vs. placebo, UAS7 reduction of 10 points or more",[7],0.841
same,"RRD (%) for rilzabrutinib vs. placebo, UAS7 reduction of 10 points or more",[7],−4.0 %
same,"Responder, UAS7 reduction from baseline of 10 points or more",[7],14 (36.8) n (%)
same,UAS7 Change from baseline Mean (SD),[8],−10.57 (9.36)
same,UAS7 Change from baseline Median,[8],−8.70
same,UAS7 Median,[8],22.87
same,UAS7 Percent change from baseline Mean (SD),[8],−33.23 (28.33) %
same,UAS7 Percent change from baseline Median,[8],−29.67%
same,UAS7 Change from baseline Mean (SD),[9],−25.00 (NC)
same,UAS7 Change from baseline Median,[9],−25.00
same,UAS7 Mean (SD),[9],16.00 (NC)
same,UAS7 Median,[9],16.00
same,UAS7 Percent change from baseline Mean (SD),[9],−60.98 (NC) %
same,UAS7 Percent change from baseline Median,[9],−60.98%
same,"Non-responder, UAS7 reduction from baseline of 10 points or more",[10],24 (64.9) n (%)
same,"OR for rilzabrutinib vs. placebo, UAS7 reduction of 10 points or more",[10],0.780
same,"RRD (%) for rilzabrutinib vs. placebo, UAS7 reduction of 10 points or more",[10],−5.8 %
same,"Responder, UAS7 reduction from baseline of 10 points or more",[10],13 (35.1) n (%)
same,"Non-responder, UAS7 reduction from baseline of 10 points or more",[11],18 (43.9) n (%)
same,"OR for rilzabrutinib vs. placebo, UAS7 reduction of 10 points or more",[11],1.638
same,"RRD (%) for rilzabrutinib vs. placebo, UAS7 reduction of 10 points or more",[11],11.7 %
same,"Responder, UAS7 reduction from baseline of 10 points or more",[11],23 (56.1) n (%)
same,UAS7 Change from baseline Mean (SD),[12],−19.04 (11.40)
same,UAS7 Change from baseline Median,[12],−18.92
same,UAS7 Mean (SD),[12],11.00 (9.90)
same,UAS7 Percent change from baseline Mean (SD),[12],−62.32 (31.89) %
same,UAS7 Percent change from baseline Median,[12],−60.00%
same,UAS7 Change from baseline Mean (SD),[13],−27.40 (16.76)
same,UAS7 Change from baseline Median,[13],−34.00
same,UAS7 Mean (SD),[13],7.80 (13.01)
same,UAS7 Median,[13],0.00
same,UAS7 Percent change from baseline Mean (SD),[13],−74.46 (35.38) %
same,UAS7 Percent change from baseline Median,[13],−100.00%
same,"Non-responder, UAS7 reduction from baseline of 10 points or more",[14],15 (42.9) n (%)
same,"OR for rilzabrutinib vs. placebo, UAS7 reduction of 10 points or more",[14],1.805
same,"Responder, UAS7 reduction from baseline of 10 points or more",[14],20 (57.1) n (%)

# — US20260256792A1, “TREATMENT OF CHRONIC SPONTANEOUS URTICARIA BY ADMINISTERING (R)-2-[3-[4-AMINO-3-(2-FLUORO-4-PHENOXY-PHENYL)PYRAZOLO[3,4-D]PYRIMIDIN-1-YL]PIPERIDINE-1-CARBONYL]-4-METHYL-4-[4-(OXETAN-3-YL)PIPERAZIN-1-YL]PENT-2-ENENITRILE” (priority 2023, published 2026)
